Laboratory results reported in PMC7503500, “A Structure-Activity Relationship Comparison of Imidazodiazepines Binding at Kappa, Mu, and Delta Opioid Receptors and the GABAA Receptor” (Molecules, 2020).
Several values for one entry are separate records, joined by “and”; a condition that tells them apart may be missing. Identical values can stand only once. Entries after “also recorded” stand apart in the source; their conditions may differ. Like-named read-outs stand apart in the source and are kept apart here.

Legend:
µ opioid receptor (MOR) = µ opioid receptor (MOR) (Homo sapiens, UniProt P35372); assay: Radioligand competition binding, MOR ([3H]-DAMGO), HEK293 cell homogenates; details: for inhibition at 10 µM: read-out: MOR % (percent inhibition), at 10,000 nM; for MOR % (percent inhibition): at 10,000 nM
[1] = tested on: synaptic benzodiazepine-sensitive receptors (BZR), GABAAR; assay: 3H-flunitrazepam binding, rat brain homogenate; details: for BZR % (percent inhibition): at 10,000 nM; for Ki: read-out: BZR (Ki)
κ opioid receptor (KOR) = κ opioid receptor (KOR) (Homo sapiens, UniProt P41145); assay: Radioligand competition binding, KOR ([3H]-U69593), HEK293 cell homogenates; details: for inhibition at 10 µM: read-out: KOR % (percent inhibition), at 10,000 nM; for inhibition at 10 µM / KOR % (percent inhibition): [3H]-U69593; for KOR affinity (in words): screening at 10,000 nM; for KOR % (percent inhibition): at 10,000 nM
δ opioid receptor (DOR) = δ opioid receptor (DOR) (Homo sapiens, UniProt P41143); assay: Radioligand competition binding, DOR ([3H]-DADLE), HEK293 cell homogenates; details: for inhibition at 10 µM: read-out: DOR % (percent inhibition), at 10,000 nM; for DOR % (percent inhibition): at 10,000 nM
human KOR = target: T1, human KOR (Homo sapiens, UniProt P41145); assay: cell-based
T1 construct: expressed in transfected cells; host or cells: HEK293T

activated microglia = tested on: activated microglia; set-up: method as in PMID 32511908; details: reversed by KOR antagonist norbinaltorphimine; cited from earlier work
[2] = set-up: method as in PMID 32511908; details: cited from earlier work
[3] = set-up: method as in PMID 32511908; details: both phases; cited from earlier work
[4] = read-out: KOR (Ki), [3H]-U69593, HEK293 homogenates

SMILES	inhibition at 10 µM (µ opioid receptor (MOR); [3H]-DAMGO) [%]	BZR % (percent inhibition) [1] [%]	Ki [1] [µM]	inhibition at 10 µM (κ opioid receptor (KOR)) [%]	inhibition at 10 µM (δ opioid receptor (DOR)) [%]	Ki (κ opioid receptor (KOR)) [µM]	further results
Cc1ncoc1-c1ncn2c1CN=C(c1ccccn1)c1cc(Br)ccc1-2 [KRM-II-81]	7	86	0.294	46	15	–	KOR affinity (in words) (κ opioid receptor (KOR)): insignificant KOR affinity
C#Cc1ccc2c(c1)C(c1ccccn1)=NCc1c(-c3nc(CC)no3)ncn1-2 [MP-III-080]	0	88	0.303	47	0	–	–
C#Cc1ccc2c(c1)C(c1ccccc1)=NCc1c(-c3cnco3)ncn1-2 [KRM-II-82]	5	95	0.096	78	20	1.2	–
C[C@H]1N=C(c2ccccc2F)c2cc(Br)ccc2-n2cnc(-c3cnco3)c21 [GL-III-36]	–	86	0.319	–	–	–	MOR % (percent inhibition) (µ opioid receptor (MOR); [3H]-DAMGO): 0%; KOR % (percent inhibition) (κ opioid receptor (KOR)): 88%; Ki (κ opioid receptor (KOR); [4]): 0.246 µM; DOR % (percent inhibition) (δ opioid receptor (DOR)): 12%
Cc1ncoc1-c1ncn2c1CN=C(c1ccccc1)c1cc(Br)ccc1-2 [KRM-III-66]	12	86	0.049	67	11	0.756	–
C#Cc1ccc2c(c1)C(c1ccccc1F)=N[C@@H](C)c1c(C(=O)SCC)ncn1-2 [GL-I-77]	41	92	0.124	95	4	0.125	–
CCNC(=O)c1ncn2c1[C@@H](C)N=C(c1ccccc1F)c1cc(C3CC3)ccc1-2 [GL-III-68]	0	100	0.452	88	10	0.15	–
C#Cc1ccc2c(c1)C(c1ccccc1F)=N[C@@H](C)c1c(C(=O)NC3CC3)ncn1-2 [GL-I-55]	17	95	0.02	93	24	0.15	–
C#Cc1ccc2c(c1)C(c1ccccn1)=N[C@H](C)c1c(C(=O)NC)ncn1-2 [GL-II-31]	17	72	1.7	23	3	–	–
C[C@H]1N=C(c2ccccc2F)c2cc(Br)ccc2-n2cnc(C(=O)O)c21 [GL-II-93]	0	73	0.086	0	0	–	KOR affinity (in words) (κ opioid receptor (KOR)): No KOR affinity; also recorded: insignificant KOR affinity
C[C@H]1N=C(c2ccccc2F)c2cc(C3CC3)ccc2-n2cnc(C(=O)N(C)C)c21 [GL-III-70]	0	100	3.4	68	50	0.8	–
C#Cc1ccc2c(c1)C(c1ccccc1F)=N[C@@H](C)c1c(C(=O)OC(C)(C)C)ncn1-2 [GL-I-30]	54	96	0.177	95	7	0.027	Ki (µ opioid receptor (MOR)): 1.85 µM; Selectivity in respect to BZR binding (κ opioid receptor (KOR); KOR vs BZR Ki): 6.5 fold; Opioid receptor selectivity in comparison to MOR (κ opioid receptor (KOR); KOR vs MOR Ki): 68 fold; Efficacy in comparison to full agonist salvinorin A (human KOR; BRET GαoA recruitment): 100%; EC50 (human KOR; BRET, n = 24, mean and SEM, read-out: EC50, recruitment of GαoA protein to KOR): 0.032 µM and 0.0323 µM
C#Cc1ccc2c(c1)C(c1ccccc1F)=N[C@H](C)c1c(C(=O)OC)ncn1-2 [MP-III-004]	0	78	0.445	76	24	0.599	–
CCc1noc(-c2ncn3c2[C@@H](C)N=C(c2ccccc2F)c2cc(C4CC4)ccc2-3)n1 [GL-IV-03]	–	65	–	–	–	–	MOR % (percent inhibition) (µ opioid receptor (MOR); [3H]-DAMGO): 25%; Production of nitric oxide (NO) by activated microglia (activated microglia): reduced the production of nitric oxide (NO); KOR % (percent inhibition) (κ opioid receptor (KOR)): 91%; Ki (κ opioid receptor (KOR); [4]): 0.232 µM; DOR % (percent inhibition) (δ opioid receptor (DOR)): 67%; Impairment of sensorimotor coordination [2]: without inducing impairment of sensorimotor coordination; Agitation response in the formalin nociception test [3]: alleviated the agitation response in both phases
C[C@H]1N=C(c2ccccn2)c2cc(Br)ccc2-n2cnc(C(=O)O)c21 [GL-II-51]	0	84	0.181	11	0	–	–
C#Cc1ccc2c(c1)C(c1ccccc1F)=N[C@H](C)c1c(C(=O)OCC)ncn1-2 [SH-053-2′F-R-CH3]	28	85	0.379	89	32	0.24	–
C#Cc1ccc2c(c1)C(c1ccccc1F)=N[C@@H](C)c1c(-c3nc(C(C)C)no3)ncn1-2 [GL-I-81]	–	83	0.839	–	–	–	MOR % (percent inhibition) (µ opioid receptor (MOR); [3H]-DAMGO): 64%; Ki (µ opioid receptor (MOR); read-out: MOR Ki, [3H]-DAMGO, HEK293 homogenates): 2.92 µM; KOR % (percent inhibition) (κ opioid receptor (KOR)): 93%; Ki (κ opioid receptor (KOR); [4]): 0.127 µM; DOR % (percent inhibition) (δ opioid receptor (DOR)): 25%
C[C@H]1N=C(c2ccccc2F)c2cc(Cl)ccc2-n2cnc(C(=O)O)c21 [GL-III-54]	0	100	0.042	22	0	–	–
C#Cc1ccc2c(c1)C(c1ccccc1F)=NCc1c(-c3ocnc3C)ncn1-2 [KRM-III-65]	0	96	0.045	64	16	0.879	–
Cc1noc(-c2ncn3c2[C@@H](C)N=C(c2ccccc2F)c2cc(C4CC4)ccc2-3)n1 [GL-III-63]	–	28	–	–	–	–	MOR % (percent inhibition) (µ opioid receptor (MOR); [3H]-DAMGO): 8%; KOR % (percent inhibition) (κ opioid receptor (KOR)): 78%; Ki (κ opioid receptor (KOR); [4]): 0.678 µM; DOR % (percent inhibition) (δ opioid receptor (DOR)): 31%
